Measured values: patent US20260372303A1, “5-Fluoro-4-Imino-3-Methyl-1-Tosyl-3, 4-Dihydropyrimidin-2(1H) -One for Fungicide-Resistant Fungus” (priority 2022, published 2026)

Assays:
Type in all cases: in vivo
[1] = test system: Zymoseptoria tritici strain Zt 38-02; test: In planta preventive efficacy on wheat cv. Alixan against Zymoseptoria tritici strain Zt 38-02; conditions: for Disease Severity Intensity: % of length of 2nd leaf blade, preventive 24 h; for AUDPC: control 1261.4
Method: (§1) A series of experiments were conducted to evaluate the efficacy of flumetylsulforim (ADF-16) for treating different strains of Zymoseptoria tritici in comparison with commercially available fungicides. Table 1 describes the Z. tritici strains used in this study and Table 2 describes the fungicides used in this study.
(§2) Winter wheat plants cv. Alixan (Limagrain) at the BBCH 12 growth stage were treated preventively with sterile distilled water (control), ADF-16, penthiopyrad, metconazole or tebuconazole at the rates described in Table 2 with a hand sprayer at 2 bars.
(§3) After treatment, wheat plants were left to dry at room temperature for 1 hour and then placed in a climatic chamber: temperature of 24 °C day/18 °C night-photoperiod of 16 h light/8 h dark and a relative humidity of 65%.
(§4) Untreated or treated whole wheat plants were inoculated 24-hours post-treatment with a calibrated pycnospore suspension of Z. tritici strains Zt StA, Zt 61, Zt 99, Zt 20, Zt 19-52, and Zt 38-02. Three replicates (pots) of 6 wheat plants each were used for each condition tested.
(§5) After inoculation, pots were transferred in a climatic chamber: temperature of 20 °C day/17 °C night—photoperiod of 16 h light/8 h dark and controlled relative humidity.
(§6) Disease assessments were carried out at 15 days post inoculation (dpi), 21 dpi and 28 dpi by measuring the length of the necrosis on the second leaf blade. The intensity of infection was then determined as a percentage of the total length of 2nd leaf blade.
(§7) The fungicide efficacies were determined from the Area Under the Disease Progress Curve (AUDPC) values and expressed as a percentage of the untreated control.
(§8) The AUDPC is a quantitative measure of disease intensity over time. The most commonly used method for estimating the AUDPC, the trapezoidal method, is performed by multiplying the average disease intensity between each pair of adjacent timepoints by the corresponding time interval and this for each time interval. The AUDPC is determined with the following formula by adding all of the trapezoids:
(§9) [formula] • yi=disease severity at the ith observation • ti=time (days) at the ith observation • N=total number of observations

[2] = test system: Zymoseptoria tritici strain Zt 61; test: In planta preventive efficacy on wheat cv. Alixan against Zymoseptoria tritici strain Zt 61; parameters: fungicide efficacy: concentration or dose not given beside the values; conditions: for Disease Severity Intensity: % of length of 2nd leaf blade, preventive 24 h; for AUDPC: control 1194.9
Method: as §1, §2, §3, §4, §5, §6, §7, §8, §9

[3] = test system: Zymoseptoria tritici strain Zt StA; test: In planta preventive efficacy on wheat cv. Alixan against Zymoseptoria tritici strain Zt StA (control strain, sensitive); conditions: for Disease Severity Intensity: % of length of 2nd leaf blade, preventive 24 h; for AUDPC: control 781.6
Method: as §1, §2, §3, §4, §5, §6, §7, §8, §9

[4] = test system: Zymoseptoria tritici strain Zt 99; test: In planta preventive efficacy on wheat cv. Alixan against Zymoseptoria tritici strain Zt 99; conditions: for Disease Severity Intensity: % of length of 2nd leaf blade, preventive 24 h; for AUDPC: control 1352.9
Method: as §1, §2, §3, §4, §5, §6, §7, §8, §9

[5] = test system: Zymoseptoria tritici strain Zt 20; test: In planta preventive efficacy on wheat cv. Alixan against Zymoseptoria tritici strain Zt 20; conditions: % of length of 2nd leaf blade, preventive 24 h
Method: as §1, §2, §3, §4, §5, §6, §7, §8, §9

[6] = test system: Zymoseptoria tritici strain Zt 19-52; test: In planta preventive efficacy on wheat cv. Alixan against Zymoseptoria tritici strain Zt 19-52; conditions: % of length of 2nd leaf blade, preventive 24 h
Method: as §1, §2, §3, §4, §5, §6, §7, §8, §9

[7] = rate N (g a.i./ha): ADF-16 100, penthiopyrad 200, metconazole 90, tebuconazole 250
[8] = rate N/2.5 (g a.i./ha): ADF-16 40, penthiopyrad 80, metconazole 36, tebuconazole 100
[9] = 15 dpi, rate N (g a.i./ha): ADF-16 100, penthiopyrad 200, metconazole 90, tebuconazole 250, control also no disease
[10] = 15 dpi, rate N/2.5 (g a.i./ha): ADF-16 40, penthiopyrad 80, metconazole 36, tebuconazole 100, control also no disease

With CC(C)(C)C(O)(CCc1ccc(Cl)cc1)Cn1cncn1 (stereo not drawn) [Tebuconazole] the “Disease Severity Intensity” value ([1]; 15 dpi, rate N (g a.i./ha): ADF-16 100, penthiopyrad 200, metconazole 90, tebuconazole 250, control 36.0) was 0.0 +/− 0.0b %, the “Disease Severity Intensity” value ([1]; 15 dpi, rate N/2.5 (g a.i./ha): ADF-16 40, penthiopyrad 80, metconazole 36, tebuconazole 100, control 36.0) was 0.0 +/− 0.0b % and the “Disease Severity Intensity” value ([1]; 21 dpi, rate N (g a.i./ha): ADF-16 100, penthiopyrad 200, metconazole 90, tebuconazole 250, control 84.3) was 9.3 +/− 1.9e %. The “Disease Severity Intensity” value ([1]; 21 dpi, rate N/2.5 (g a.i./ha): ADF-16 40, penthiopyrad 80, metconazole 36, tebuconazole 100, control 84.3) was 62.2 +/− 4.5bc %, the “Disease Severity Intensity” value ([1]; 28 dpi, rate N (g a.i./ha): ADF-16 100, penthiopyrad 200, metconazole 90, tebuconazole 250, control 95.7) was 45.1 +/− 4.0d % and the “Disease Severity Intensity” value ([1]; 28 dpi, rate N/2.5 (g a.i./ha): ADF-16 40, penthiopyrad 80, metconazole 36, tebuconazole 100, control 95.7) was 93.3 +/− 0.9ab %. For the same compound, the “Efficacy (from AUDPC, percentage of the untreated control)” value [1, 7] was 82.7%, the AUDPC [1, 7] was 218.1 ± 3.5 days and the “Efficacy (from AUDPC, percentage of the untreated control)” value [1, 8] was 42.3%. The AUDPC [1, 8] was 728.1 +/− 31.6b, the “Disease Severity Intensity” value [2, 9] was “No disease” and the “Disease Severity Intensity” value [2, 10] was “No disease”. The “Disease Severity Intensity” value ([2]; 21 dpi, rate N (g a.i./ha): ADF-16 100, penthiopyrad 200, metconazole 90, tebuconazole 250, control 63.3) was 1.5 +/− 0.9d %, the “Disease Severity Intensity” value ([2]; 21 dpi, rate N/2.5 (g a.i./ha): ADF-16 40, penthiopyrad 80, metconazole 36, tebuconazole 100, control 63.3) was 11.8 +/− 3.6c % and the “Disease Severity Intensity” value ([2]; 28 dpi, rate N (g a.i./ha): ADF-16 100, penthiopyrad 200, metconazole 90, tebuconazole 250, control 88.1) was 30.7 +/− 5.3d %. The “Disease Severity Intensity” value ([2]; 28 dpi, rate N/2.5 (g a.i./ha): ADF-16 40, penthiopyrad 80, metconazole 36, tebuconazole 100, control 88.1) was 54.3 +/− 6.2c %, the fungicide efficacy ([2]; higher application rates (N)) was no less than 85% and the fungicide efficacy ([2]; lower application rates (N/2.5)) was no more than 70%. For the same compound, the “Efficacy (from AUDPC, percentage of the untreated control)” value [2, 7] was 89.5%, the AUDPC [2, 7] was 125.1 ± 46.8 days and the “Efficacy (from AUDPC, percentage of the untreated control)” value [2, 8] was 70.3%. For the same compound, the AUDPC [2, 8] was 354.9 +/− 103.8bc, the “Disease Severity Intensity” value [3, 9] was “No disease” and the “Disease Severity Intensity” value [3, 10] was “No disease”. The “Disease Severity Intensity” value ([3]; 21 dpi, rate N (g a.i./ha): ADF-16 100, penthiopyrad 200, metconazole 90, tebuconazole 250, control 36.5) was 0.0 +/− 0.0b %, the “Disease Severity Intensity” value ([3]; 21 dpi, rate N/2.5 (g a.i./ha): ADF-16 40, penthiopyrad 80, metconazole 36, tebuconazole 100, control 36.5) was 0.0 +/− 0.0b % and the “Disease Severity Intensity” value ([3]; 28 dpi, rate N (g a.i./ha): ADF-16 100, penthiopyrad 200, metconazole 90, tebuconazole 250, control 77.4) was 0.0 +/− 0.0b %. For the same compound, the “Disease Severity Intensity” value ([3]; 28 dpi, rate N/2.5 (g a.i./ha): ADF-16 40, penthiopyrad 80, metconazole 36, tebuconazole 100, control 77.4) was 0.0 +/− 0.0b %, the “Efficacy (from AUDPC, percentage of the untreated control)” value [3, 7] was 100% and the AUDPC [3, 7] was 0.0 +/− 0.0b. For the same compound, the “Efficacy (from AUDPC, percentage of the untreated control)” value [3, 8] was 100%, the AUDPC [3, 8] was 0.0 +/− 0.0b and the “Disease Severity Intensity” value ([4]; 15 dpi, rate N (g a.i./ha): ADF-16 100, penthiopyrad 200, metconazole 90, tebuconazole 250, control 47.9) was 0.0 +/− 0.0d %. The “Disease Severity Intensity” value ([4]; 15 dpi, rate N/2.5 (g a.i./ha): ADF-16 40, penthiopyrad 80, metconazole 36, tebuconazole 100, control 47.9) was 0.0 +/− 0.0d %, the “Disease Severity Intensity” value ([4]; 21 dpi, rate N (g a.i./ha): ADF-16 100, penthiopyrad 200, metconazole 90, tebuconazole 250, control 81.0) was 1.5 +/− 0.8f % and the “Disease Severity Intensity” value ([4]; 21 dpi, rate N/2.5 (g a.i./ha): ADF-16 40, penthiopyrad 80, metconazole 36, tebuconazole 100, control 81.0) was 12.1 +/− 1.7e %. For the same compound, the “Disease Severity Intensity” value ([4]; 28 dpi, rate N (g a.i./ha): ADF-16 100, penthiopyrad 200, metconazole 90, tebuconazole 250, control 92.2) was 12.8 +/− 2.5d %, the “Disease Severity Intensity” value ([4]; 28 dpi, rate N/2.5 (g a.i./ha): ADF-16 40, penthiopyrad 80, metconazole 36, tebuconazole 100, control 92.2) was 58.7 +/− 4.6c % and the “Efficacy (from AUDPC, percentage of the untreated control)” value [4, 7] was 96.0%. For the same compound, the AUDPC [4, 7] was 54.0 ± 3.3 g, the “Efficacy (from AUDPC, percentage of the untreated control)” value [4, 8] was 79.0% and the AUDPC [4, 8] was 283.9 +/− 30.0f^. For the same compound, the “Disease Severity Intensity” value [5, 9] was “No disease”, the “Disease Severity Intensity” value [5, 10] was “No disease” and the “Disease Severity Intensity” value ([5]; 21 dpi, rate N (g a.i./ha): ADF-16 100, penthiopyrad 200, metconazole 90, tebuconazole 250, control 77.2) was 0.6 +/− 0.5de %. For the same compound, the “Disease Severity Intensity” value ([5]; 21 dpi, rate N/2.5 (g a.i./ha): ADF-16 40, penthiopyrad 80, metconazole 36, tebuconazole 100, control 77.2) was 4.6 +/− 1.3c %, the “Disease Severity Intensity” value ([5]; 28 dpi, rate N (g a.i./ha): ADF-16 100, penthiopyrad 200, metconazole 90, tebuconazole 250, control 95.5) was 17.1 +/− 1.9e % and the “Disease Severity Intensity” value ([5]; 28 dpi, rate N/2.5 (g a.i./ha): ADF-16 40, penthiopyrad 80, metconazole 36, tebuconazole 100, control 95.5) was 54.8 +/− 3.7c %. For the same compound, the “Disease Severity Intensity” value ([6]; 15 dpi, rate N (g a.i./ha): ADF-16 100, penthiopyrad 200, metconazole 90, tebuconazole 250, control 22.0) was 0.0 +/− 0.0b %, the “Disease Severity Intensity” value ([6]; 15 dpi, rate N/2.5 (g a.i./ha): ADF-16 40, penthiopyrad 80, metconazole 36, tebuconazole 100, control 22.0) was 0.0 +/− 0.0b % and the “Disease Severity Intensity” value ([6]; 21 dpi, rate N (g a.i./ha): ADF-16 100, penthiopyrad 200, metconazole 90, tebuconazole 250, control 81.7) was 0.2 +/− 0.2c %. The “Disease Severity Intensity” value ([6]; 21 dpi, rate N/2.5 (g a.i./ha): ADF-16 40, penthiopyrad 80, metconazole 36, tebuconazole 100, control 81.7) was 0.7 +/− 0.4bc %, the “Disease Severity Intensity” value ([6]; 28 dpi, rate N (g a.i./ha): ADF-16 100, penthiopyrad 200, metconazole 90, tebuconazole 250, control 91.0) was 7.9 +/− 2.2cd % and the “Disease Severity Intensity” value ([6]; 28 dpi, rate N/2.5 (g a.i./ha): ADF-16 40, penthiopyrad 80, metconazole 36, tebuconazole 100, control 91.0) was 13.1 +/− 2.3c %.
